Measured values reported in patent US20180369342A1, “CARDIAC METABOLIC EFFECT OF LANTUS” (Sanofi-Aventis Deutschland GmbH, priority 2015, published 2018).
“Also recorded” adds a separate entry of the source.

Assays:
[1] = test system: db/db mouse hearts; assay: Isolated working heart perfusion, cardiac energy metabolism (acute treatment), db/db; conditions: for glucose oxidation / palmitate oxidation: isolated working db/db mouse hearts, 10 wk old
Method: (§1) The effect of three different types of insulin, human insulin, insulin degludec, and the M1 metabolite of insulin glargine, on cardiac metabolism was determined in adult, 10 weeks old mice using either healthy C57Bl6 wildtype mice or Type-2 diabetes db/db mice. Mice were fed a standard chow diet and kept in 12 hr light: 12 hr dark cycle. To test their acute effect energy metabolism, hearts were removed from fully anesthetized mice, and perfused as isolated working hearts with Krebs Henseleit buffer (118.5 mM NaCl, 1.2 mM MgSO4, 25 mM NaHCO3, 4.7 mM KCl, 1.2 mM KH2PO4, 2.5 mM CaCl2) supplemented with 0.8 mM palmitate bound to 3% fatty acid-free bovine serum albumin (BSA), 5 mM glucose, and 0.5 mM lactate. Hearts underwent aerobic perfusion for 72 min with vehicle or increasing amounts of insulin (0, 25, 50, 100 μU/ml), insulin Degludec (0, 100, 300, 1000 μU/ml), or the M1 metabolite of insulin Glargine (0, 25, 50, 100 μU/ml). Each concentration escalation step lasted 18 minutes. At the end of the heart perfusion hearts were immediately snap frozen in liquid N2 and stored at −80° C. See FIG. 1 In order to measure glucose oxidation, glycolysis, palmitate oxidation, and lactate oxidation [U-^14C] glucose, [5-^3H] glucose, [9, 10-^3H] palmitate, and [U-^14C] lactate, respectively, were added to the perfusate as described above in Example 1. Glycolysis and palmitate oxidation rates were determined based on the rates of ^3H2O production. To determine glucose oxidation and lactate oxidation rates ^14CO2 production was assessed.

[2] = test system: C57bl/6 mouse hearts; assay: Isolated working heart perfusion, cardiac energy metabolism (acute treatment), C57bl/6; conditions: for cardiac efficiency / % ATP from glucose oxidation / % ATP from palmitate oxidation: C57bl/6 mouse hearts; for glucose oxidation / palmitate oxidation: isolated working C57bl/6 mouse hearts, 10 wk old
Method: as §1

[3] = test system: db/db mice; assay: Chronic treatment of db/db mice: blood glucose and glucose tolerance; format: in vivo, mouse; conditions: 18 week old db/db mice; for blood glucose levels: 5 U/kg BW daily, data not shown; for blood glucose tolerance: 150 U/kg BW daily for 4 weeks
Method: (§2) In a second set 18 week old db/db mice were treated with vehicle, NPH insulin, Degludec, or Lantus daily for 4 weeks (see FIG. 8). 18 wk old db/db mice were specifically used because by this age they have a diastolic dysfunction. The original protocol involved treating the mice with either NPH insulin (5 U/kg BW), Degludec (5 U/kg BW), or Lantus (5 U/kg BW). […] Other groups have reported that a higher dose of insulin is required to control hyperglycemia in db/db mice. The highest dose that had been reported to be safe, was 150 U/kg BW, which was then used for future experiments. Treating the mice with 150 U/kg BW of NPH insulin, Degludec, or Lantus improved blood glucose tolerance much more dramatically (FIG. 9). At the end of the 4 week treatment period, the cardiac energy metabolism and function was assessed via echocardiography. The Vevo 770 high resolution echocardiography imaging system was used to assess in vivo cardiac function was assessed in isoflurane anesthetized mice.

[4] = test system: Akt; assay: Western Blot Analysis of cardiac Akt phosphorylation after acute treatment; conditions: db/db mouse hearts
Method: The phosphorylation status of several enzymes involved in insulin signaling were also assessed in the C57bl/6 and db/db mouse hearts treated acutely with insulin, Degludec, or Lantus, via Western Blot Analysis. Frozen heart issue was homogenized for 30 sec in homogenization buffer (50 mM Tris HCl, 10% glycerol, 1 mM EDTA, 0.02% Brij-35, 1 mM DTT, and protease and phosphatase inhibitors (Sigma)). After sitting on ice at least 10 min, tissue homogenates were centrifuged at 10,000×g for 20 min. The supernatant was then stored at −80° C. Protein concentration of supernatant was determined using the Bradford protein assay. After running samples on SDS-polyacrylamide gel electrophoresis, protein was transferred onto nitrocellulose membrane. Primary antibodies included pAkt Ser473 (Cell Signaling 9271), Akt (Cell Signaling 9272), pGSK3α/β Ser21/9 (Cell Signaling 9331), GSK3β (Cell Signaling 9315), pPDH Ser293 (Calbiochem AP1062), and PDH (Cell Signaling 2784). Protein bands were visualized on autoradiography film using enhanced chemiluminescence (Perkin Elmer) and quantified with Image J.

[5] = test system: db/db mice; assay: Chronic treatment of db/db mice: in vivo cardiac function by echocardiography; design: species or system mouse; conditions: chronic treatment 4 weeks
Method: The long-term effects of insulin treatment on cardiac function was assessed in two different settings. In acute treatments, measurements were performed in isolated working hearts from either wildtype mice (C57Bl) or mice with a diabetes type-2 phenotype (db/db mice). In a second chronic setting, db/db animals were treated for 4 weeks with daily administration of different high doses of insulins to achieve similar effects on systemic hypergycaemia. At the end of the chronic study, effects on cardiac function was assessed by echocardiography.
as §2

Substance	cardiac efficiency ([1]; db/db mouse hearts)	glucose oxidation [1]	palmitate oxidation [1]	cardiac efficiency [2]	glucose oxidation [2]	palmitate oxidation [2]	blood glucose levels [3]	blood glucose tolerance [3]	% ATP from glucose oxidation ([1]; db/db mouse hearts)	% ATP from palmitate oxidation ([1]; db/db mouse hearts)	% ATP from glucose oxidation [2]	% ATP from palmitate oxidation [2]	pAkt [4]	cardiac output [5]	cardiac stroke volume [5]	in vivo cardiac function [5]	in vivo cardiac function ([5]; listed as lantus)
Gly (A21) human insulin [M1-metabolite of insulin glargine]	improved	able to stimulate	inhibit	improved	able to stimulate	inhibit											
NPH insulin: long acting basal insulin							did not reduce	improved									
insulin: human insulin									13%	53%	18%	55%					
Gly (A21), Arg (B31), Arg (B32) human insulin [Lantus]		stimulates	decreases	improves	stimulates	decreases	did not reduce	improved	14%	56%	30%	37%	significantly increased	significantly increased; also recorded: improved	significantly increased; also recorded: improved	improved	improves
Degludec		not	not		not	not	did not reduce	improved	5%	75%	12%	62%					
